Values joined by “and” are separate entries in the source; they are usually repeats but may differ in a detail not shown here. Equal entries are not always repeated. Structures can show the parent of a compound that is named as a salt.
Legend:
[1] = test system: Adult male Wistar rats; assay: Tail-flick latency; format: in vivo, rat; conditions: for decrease in potency when moving from i.p. to p.o. route of administration: analgesia, i.p. vs p.o.; for peak analgesia: tail-flick
[2] = test system: Adult male Wistar rats; conditions: tramadol 40 mg/kg i.p.; ref Wang et al., 2015; cited from earlier work
[3] = oral tramadol; ref Nobilis et al., 2002, Ong et al., 2005; cited from earlier work
[4] = test system: brain CYP2D; conditions: seven-day subcutaneous nicotine; ref McMillan and Tyndale, 2015; cited from earlier work
[5] = test system: brain CYP2D; conditions: seven-day subcutaneous nicotine; ref McMillan and Tyndale, 2015; cited from earlier work; remark: listed apart in the source
[6] = test system: brain CYP2D; conditions: 24 hr i.c.v. propranolol pretreatment, pilot study
[7] = test system: brain CYP2D; conditions: 24 hr i.c.v. propranolol pretreatment, pilot microdialysis study, tramadol p.o.

CN1CC[C@]23c4c5ccc(O)c4O[C@H]2[C@@H](O)C=C[C@H]3[C@H]1C5 [morphine]
decrease in potency when moving from i.p. to p.o. route of administration [1]: 2.5 – 10 fold

COc1cccc(C2(O)CCCCC2CN(C)C)c1 (stereo not drawn) [tramadol, Tramadol hydrochloride]
decrease in potency when moving from i.p. to p.o. route of administration [1]: 2.5 – 10 fold and 2.5 fold
overall analgesic response, AUC 0–60 min ([1]; tramadol 40 mg/kg i.p.): 2840 %MPE*min
time to peak analgesia ([1]; tramadol 40 mg/kg i.p.): 50 min post-injection
peak analgesia ([1]; tramadol 40 mg/kg i.p.): 65 % MPE
peak analgesia ([1]; tramadol 100 mg/kg p.o.): 74 % MPE
overall analgesic response, AUC 0–60 min (published) [2]: 1740 %MPE*min
peak analgesia (published) [2]: approximately 52 % MPE
time to peak analgesia (published) [2]: 45 min post-injection
fraction of a tramadol dose undergoing first-pass metabolism [3]: 30%

COc1ccc2c3c1O[C@H]1[C@@H](O)C=C[C@H]4[C@@H](C2)N(C)CC[C@@]341 [codeine]
decrease in potency when moving from i.p. to p.o. route of administration [1]: 2.5 – 10 fold

CN1CCC[C@H]1c1cccnc1 [nicotine]
increase in codeine-induced antinociception, tail-flick reflex AUC0–30 min [4]: 1.6 fold
increase in codeine-induced antinociception, hot-plate test AUC [5]: 2.5 fold

CC(C)NCC(O)COc1cccc2ccccc12 (stereo not drawn) [propranolol, Propranolol hydrochloride]
effect on analgesia after tramadol p.o. [6]: increase in analgesia
effect on brain levels of tramadol, ODSMT and NDSMT [7]: increased

Source: PMC8262591 (Brain research bulletin, 2020)
